Results from patent US7307099B2, “4-(1-(sulfonyl)-1h-indol-2-yl)-4-(hydroxy)-cyclohexa-2,5-dienone compounds and analogs thereof as therapeutic agents” (Cancer Research Technology Limited, priority 2002, dated 2007).
pIC50: −log10 of the molar value. Read-outs that look alike come from different tables or passages of the source.

Assays:
[1] = tested on: HCT116 colon carcinoma tumour; assay: HCT116 colon carcinoma tumour in tumour-bearing mice; assay type: in vivo
Experimental: (§1) The in vivo activity of SIQ-01 was studied. The maximum tolerated dose of SIQ-01 in mice is 30 mg/kg on a daily (×5) schedule. Combination treatment of SIQ-01 and cisplatin was active against the HCT116 colon carcinoma tumour when administered to tumour-bearing mice (15 mg SIC-01/kg administered by intraperitoneal injection on days 1-5 and 8-10; 4 mg cisplatin/kg administered subcutaneously on days 1 and 8), and gave a maximum T/C (Test/Control) of 49%. Treatment with cisplatin alone (same regimen) gave a maximum T/C (Test/Control) of 56%.

[2] = tested on: 60 human cancer cell lines; assay: NCI in vitro 60 cell panel (48 hour drug exposure); assay type: cell-based; settings: for LC50: read-out: Mean log10 LC50 (converted)
Experimental: (§2) Compounds were tested for in vitro activity (48 hour drug exposure) across 60 human cancer cell lines through the National Cancer Institute (NCl) Developmental Therapies Screening Program (Boyd et al., 1995).

CAKI-1 (renal) = assay: NCI in vitro 60 cell panel, CAKI-1; assay type: cell-based; settings: Homo sapiens, read-out: Most Senstive Cells Lines mean log10 LC50 (converted)
Experimental: as §2

HCT-116 (colon) = assay: NCI in vitro 60 cell panel, HCT-116; assay type: cell-based; settings: Homo sapiens, read-out: Most Senstive Cells Lines mean log10 LC50 (converted)
Experimental: as §2

HT29 colon carcinoma = assay: Growth inhibitory assay (MTT, 72 hour exposure), HT29; assay type: cell-based; settings: Homo sapiens, HT 29, MTT
Experimental: (§3) Compounds were prepared as 10 mM top stocks, dissolved in DMSO, and stored at 4° C., protected from light, for a maximum period of 4 weeks. Human derived cell lines (HCT 116, HT29 colon carcinoma) were routinely cultivated at 37° C. in an atmosphere of 5% CO2 in RPMI 1640 medium supplemented with 2 mM L-glutamine and 10% fetal calf serum and subcultured twice weekly to maintain continuous logarithmic growth. Cells were seeded into 96-well microtiter plates at a density of 5×10^3 per well and allowed 24 hours to adhere before drugs were introduced (final concentration 0.1 nM-100 μM, n=8). Serial drug dilutions were prepared in medium immediately prior to each assay. At the time of drug addition and following 72 hour exposure, MTT was added to each well (final concentration 400 µg/mL). Incubation at 37° C. for 4 hr allowed reduction of MTT by mitochondrial dehydrogenase to an insoluble formazan product. Well contents were aspirated and formazan solubilized by addition of DMSO:glycine buffer (pH 10.5) (4:1). Absorbance was measured using an Anthos Labtec systems plate reader at 550 nm, and used as a measure of cell viability; thus cell growth or drug toxicity was determined.

HCT 116 colon carcinoma = assay: Growth inhibitory assay (MTT, 72 hour exposure), HCT 116; assay type: cell-based; settings: Homo sapiens, HCT 116, MTT
Experimental: as §3

[3] = Maximum tolerated dose in mice; settings: mouse, in vivo, daily (×5) schedule
Experimental: as §1

ACHN (renal) = assay: NCI in vitro 60 cell panel, ACHN; assay type: cell-based; settings: Homo sapiens, read-out: Most Senstive Cells Lines mean log10 LC50 (converted)
Experimental: as §2

LOX IMVI (melanoma) = assay: NCI in vitro 60 cell panel, LOX IMVI; assay type: cell-based; settings: Homo sapiens, read-out: Most Senstive Cells Lines mean log10 LC50 (converted)
Experimental: as §2

[4] = target: T1, Thioredoxin/Thioredoxin Reductase (Tx/TR) (Homo sapiens, UniProt P10599); assay: Thioredoxin/thioredoxin reductase-catalysed reduction of insulin; assay type: biochemical; settings: 30 min at 37° C.
T1 construct: was purified from human placenta as previously described; made in house; host or cells: hTrx: Escherichia coli; TR: purified from human placenta tissue
T1 sequence (P10599 2-105 limits assumed): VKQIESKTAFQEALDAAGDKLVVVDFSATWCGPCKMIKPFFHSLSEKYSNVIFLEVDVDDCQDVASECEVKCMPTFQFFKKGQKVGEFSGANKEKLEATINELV
Experimental: Assays were performed using methods analogous to those described in Kirkpatrick et al., 1999 and Kunkel et al., 1997.
[…] (specific activity 43.6 μmol NADPH reduced/min/mg protein at 21° C.) was purified from human placenta as previously described (Oblong et al., 1993). Recombinant hTrx was expressed in Escherichia coli and purified as previously described (Gasdaska et al., 1994). The Trx and TR were stored at −20° C. with 5 mM dithiothreitol (DTT) which was removed before use with a desalting column (PDIO, Pharmacla, Uppsala, Sweden).
Microtitre plate colorimetric assays, based on the increase in absorbance at 405 nm which occurs as dithionitrobenzoic acid (DTNB) is reduced by the enzyme-mediated transfer of reducing equivalents from NADPH, were used to measure TR/Trx-dependent insulin-reduction and TR activity (see, e.g., Kunkel et al., 1997).
Thioredoxin reductase/thioredox […] insulin reducing activity was measured in an incubation with a final volume of 60 μL containing 100 mM HEPES buffer, pH 7.2, 5 mM EDTA (HE buffer), 1 mM NADPH, 1.0 μM thioredoxin reductase, 0.8 μM thioredoxin, and 2.5 mg/ml bovine insulin in flat-bottom 96-well microtitre plates. […] The reaction was stopped by the addition of 100 μL of 6 M guanidine HCl, 50 mM Tris, pH 8.0, and 10 mM DTNB, and the absorbance measured at 405 nm.

UO-31 (renal) = assay: NCI in vitro 60 cell panel, UO-31; assay type: cell-based; settings: Homo sapiens, read-out: Most Senstive Cells Lines mean log10 LC50 (converted)
Experimental: as §2

U251 (CNS cancer) = assay: NCI in vitro 60 cell panel, U251; assay type: cell-based; settings: Homo sapiens, U-251, read-out: Most Senstive Cells Lines mean log10 LC50 (converted)
Experimental: as §2

RXF 393 (renal) = assay: NCI in vitro 60 cell panel, RXF 393; assay type: cell-based; settings: Homo sapiens, read-out: Most Senstive Cells Lines mean log10 LC50 (converted)
Experimental: as §2

[5] = in fetal calf serum; cited from earlier work
[6] = 60 cell, as in Table 3, read-out: Mean GI50
[7] = mean across 60 cell lines, 48 hour drug exposure
[8] = mean across 60 cell lines, 48 hour drug exposure, read-out: mean log10 GI50 (converted)

O=C1C=CC(O)(c2cc3ccccc3n2S(=O)(=O)c2ccccc2)C=C1 [SIQ-01, 4-(1-benzenesulfonyl-1H-indol-2-yl)-4-hydroxy-cyclohexa-2,5-dienone]
maximum T/C (Test/Control) ([1]; combination with cisplatin: 15 mg/kg i.p. days 1-5 and 8-10, 4 mg cisplatin/kg s.c. days 1 and 8): 49%
GI50 [2, 6]: 152 nM
LC50 [2, 7]: 2950 nM
GI50 [2, 8]: 38.9 nM
CC50 (CAKI-1 (renal)): 52.5 nM
CC50 (HCT-116 (colon)): 33.1 nM
pIC50 (HT29 colon carcinoma): 6.59
pIC50 (HCT 116 colon carcinoma): 7.07
MTD at 5 days [3]: 30 mg/kg

COc1ccc2c(c1)cc(C1(O)C=CC(=O)C=C1)n2S(=O)(=O)c1ccccc1 [SIQ-02, 4-(1-benzenesulfonyl-5-methoxy-1H-indol-2-yl)-4-hydroxy-cyclohexa-2,5-dienone]
CC50 (ACHN (renal)): 447 nM
CC50 (LOX IMVI (melanoma)): 468 nM
LC50 [2, 7]: 6170 nM
GI50 [2, 8]: 135 nM

O=C1C=CC(O)(c2cc3cc(F)ccc3n2S(=O)(=O)c2ccccc2)C=C1 [SIQ-03, 4-(1-benzenesulfonyl-5-fluoro-1H-indol-2-yl)-4-hydroxy-cyclohexa-2,5-dienone]
CC50 (LOX IMVI (melanoma)): 63.1 nM
GI50 [2, 6]: 527 nM
LC50 [2, 7]: 3240 nM
GI50 [2, 8]: 66.1 nM
CC50 (HCT-116 (colon)): 50.1 nM
pIC50 (HT29 colon carcinoma): 6.46
pIC50 (HCT 116 colon carcinoma): 7.17

Cc1ccc(S(=O)(=O)n2c(C3(O)C=CC(=O)C=C3)cc3ccccc32)cc1 [SIQ-04]
pIC50 [4]: > 4.00
CC50 (LOX IMVI (melanoma)): 234 nM
GI50 [2, 6]: < 100 nM
LC50 [2, 7]: 7240 nM
GI50 [2, 8]: 112 nM
CC50 (HCT-116 (colon)): 47.9 nM
pIC50 (HT29 colon carcinoma): 6.69
pIC50 (HCT 116 colon carcinoma): 7.44

COc1ccc(S(=O)(=O)n2c(C3(O)C=CC(=O)C=C3)cc3ccccc32)cc1 [SIQ-05]
CC50 (LOX IMVI (melanoma)): 380 nM
LC50 [2, 7]: 6310 nM
GI50 [2, 8]: 162 nM
CC50 (HCT-116 (colon)): 112 nM
pIC50 (HT29 colon carcinoma): 6.38
pIC50 (HCT 116 colon carcinoma): 6.69

O=C1C=CC(O)(c2cc3ccccc3n2S(=O)(=O)c2ccc(F)cc2)C=C1 [SIQ-06, 4-[1-(4-fluoro-benzenesulfonyl)-1H-indol-2-yl]-4-hydroxy-cyclohexa-2,5-dienone]
LC50 [2, 7]: 7760 nM
GI50 [2, 8]: 234 nM
CC50 (HCT-116 (colon)): 363 nM
CC50 (UO-31 (renal)): 631 nM

O=C1C=CC(O)(c2cc3ccccc3n2S(=O)(=O)c2ccc3ccccc3c2)C=C1 [SIQ-07]
LC50 [2, 7]: 5620 nM
GI50 [2, 8]: 191 nM
CC50 (HCT-116 (colon)): 372 nM
pIC50 (HT29 colon carcinoma): 6.56
pIC50 (HCT 116 colon carcinoma): 6.71
CC50 (U251 (CNS cancer)): 513 nM

CC(C)c1cc(C(C)C)c(S(=O)(=O)n2c(C3(O)C=CC(=O)C=C3)cc3ccccc32)c(C(C)C)c1 [SIQ-09]
LC50 [2, 7]: 11200 nM
GI50 [2, 8]: 427 nM
CC50 (HCT-116 (colon)): 550 nM
CC50 (RXF 393 (renal)): 776 nM

O=C1C=CC(O)(c2cc3ccccc3n2S(=O)(=O)c2ccccc2)c2ccccc21 (stereo not drawn) [SIQ-10, 4-(1-benzenesulfonyl-1H-indol-2-yl)-4-hydroxy4H-naphthalen-1-one]
CC50 (LOX IMVI (melanoma)): 776 nM
LC50 [2, 7]: 7760 nM
GI50 [2, 8]: 447 nM
CC50 (HCT-116 (colon)): 794 nM
pIC50 (HT29 colon carcinoma): 6.35
pIC50 (HCT 116 colon carcinoma): 6.69

Cc1ccc(S(=O)(=O)n2c(C3(O)C=CC(=O)c4ccccc43)cc3ccccc32)cc1 (stereo not drawn) [SIQ-11, 4-hydroxy 4-[1-(toluene-4-sulfonyl)-1H-indol-2-yl]-4H-naphthalen-1-one]
CC50 (LOX IMVI (melanoma)): 724 nM
GI50 [2, 6]: > 1000 nM
LC50 [2, 7]: 5620 nM
GI50 [2, 8]: 389 nM
CC50 (HCT-116 (colon)): 490 nM
pIC50 (HT29 colon carcinoma): 6.41
pIC50 (HCT 116 colon carcinoma): 6.81

N.N.[Cl][Pt][Cl] [cisplatin, reference compound]
maximum T/C (Test/Control) ([1]; cisplatin alone, 4 mg/kg s.c. days 1 and 8): 56%

O=CN/C=C/c1cc(O)ccc1O [erbstatin]
half-life [5]: < 30 min
